Here are results for two substances from US5422249A, “Process for the manufacture of thrombin inhibitors” (Ciba-Geigy Corporation, priority 1984, dated 1995).

Series [1] concerns other enzymes of the blood coagulation cascade. The following applies: natural hirudin; cited from earlier work.
For series [2] the following is noted: intravenously to dogs, even in high doses; cited from earlier work.
In series [3] the test system is experimental thrombosis (induced either by stasis or by the injection of thrombin), endotoxin shock, DIC. As to conditions: cited from earlier work.
In series [4] the test system is other enzymes of the blood coagulation cascade. Nature of the series: action on other enzymes/proteinases of the blood coagulation system. It counts as biochemical. The following applies: desulphatohirudin.
Series [5] is described as follows: toxicity in rats. As to conditions: dose 1 g/kg. The class given is in vivo.
Series [6] in a line: tolerability (hypersensitivity, allergic reactions, harmlessness). The following applies: in vivo.
The subject of series [7] is thrombin from human plasma. Nature of the series: thrombin-inhibition test with Chromozym TH. The following applies: for Thrombin inhibition (%): Experimental conditions No. 1, Table 1. The class given is biochemical. As to the method: The cells (50 ml of the growing culture) are harvested and resuspended in 5 ml of a solution of 50 mM tris.HCl (pH 8.0) and 30 mM NaCl. Subsequently, the suspension is shaken with 5 g of cooled glass beads (diameter 0.5 mm), or by the addition of lysozyme (Boehringer), final concentration 1 mg/ml, at intervals during 30 to 45 minutes on a Multi-Tube Vortexer at high intensity. 0.5 ml of 2% acetic acid are added to 0.5 ml of the mixture which is then centrifuged at 12,000 revs/min for 20 minutes at 4° C. The supernatant solution is examined for hirudin activity (inhibition of thrombin). The thrombin-inhibition test is carried out as follows:
The test is based on the determination of the enzymatic removal of p-nitroaniline from the substrate Chromozym TH (tosyl-glycyl-prolyl-arginine-4-nitroanilide-acetate). […] The reaction time is 2 hours at 37° C. in the incubation chamber. For the test, 20 μl of the solution to be determined is diluted with 30 μl of filling buffer (0.2M tris.HCl pH 7.5, 1M NaCl, 100 μg/ml bovine serum albumin), and 20 μl of enzyme solution [10 mg of lyophilised thrombin from human plasma (Boehringer) dissolved in 1 ml of bidistilled water and diluted approximately 1:400 with the above filling buffer] and 150 μof substrate solution [[…] chromozym TH (Boehringer) dissolved in 4 ml of bidistilled water and diluted 1:15 with the above filling buffer] are added. All solutions are measured against a blank solution consisting of 70 μl of filling buffer (see above) and 150 μl of substrate solution and against an enzyme control solution consisting of 50 μl of filling buffer, 20 μl of enzyme solution and 150 μl of substrate solution. […] The thrombin inhibition (as a %) of the samples is calculated in accordance with the following formula: [formula]

Regarding hirudin, the “inhibition of other enzymes of the blood coagulation cascade” value in series [1] was “not inhibited”. The “effect on heart rate, respiration, blood pressure, thrombocyte count, fibrinogen and haemoglobin” value in series [2] is given as “No effect”. Also, the “direct comparison tests with heparin” value in series [3] (in vivo) is listed as “superior to heparin”. Besides, in series [3] (rats, pigs and dogs), the “efficacy in experimental thrombosis, endotoxin shock and DIC” value is reported as “effective”.
desulphatohirudin: the “specificity to thrombin / interactions with other proteinases of the blood coagulation system” value in series [4] is “completely specific to thrombin”. Moreover, the active toxicity entry in series [5] is listed as “no toxic effects”. For the same substance, in series [6], the “hypersensitivity reactions or allergic reactions” value is “no hypersensitivity reactions or allergic reactions”. This substance returned a thrombin inhibition in series [7] (HPLC fraction from S. cerevisiae GRF18/pJDB207R/PH05-HIR, conditions as in Example 26a) of 89.6%. The “Thrombin inhibition (%)” value in series [7] (RP-HPLC fractions) came to 86%; in series [7] (RP-HPLC fractions, listed as Fr 14), 79%. Moreover, the Thrombin-inhibition % in series [7] (RP-HPLC fractions, Experimental conditions No. 2, Table 2) came to 97.3 ± 2%.
